Earlier results as cited in patent publication US20090181905A1, “CRYSTALLINE FORM OF 1' -(1-METHYLETHYL)-4' -[(2-FLUORO-4-METHOXYPHENYL)METHYL]-5' -METHYL-1H-PYRAZOL-3' -O-BETA-D-GLUCOPYRANOSIDE, A METHOD FOR ITS PREPARATION AND THE USE THEREOF FOR PREPARING MEDICAMENTS” (BOEHRINGER INGELHEIM INTERNATIONAL GMBH, priority 2006, published 2009).

Test system: HbA1c
Settings: metformin on its own, in the diabetic

SMILES: CN(C)C(=N)N=C(N)N [metformin]
- average improvement in the HbA1c value: 1.0-1.5%
